Assay results reported in patent US20050232925A1, “Protease activity of thrombin inhibits angiogenesis” (priority 2002, published 2005).

Experiments:
[1] = tested on: HUVEC cells; experiment: In vitro angiogenesis (matrigel tube formation) assay; format: cell-based, human
Method: In Vitro Angiogenesis (matrigel tube formation) Assay. Unpolymerized matrigel (7 mg/ml) was placed in the wells (100 μl/well) of a pre-chilled 48-well cell culture plate and then incubated at 37° C. for 30-45 minutes. HUVEC cells were harvested in trypsin and resuspended in EC medium (4×10^4 in 300 μl). Cells were treated with the different agents before plated onto the matrigel-coated plates. […] Microphotographs of the center of each well at low power (40×) were taken with a SPOT camera (Diagnostic Instruments Inc; Sterling Heights, Mich.) and the aid of an imaging capture software (Compix Inc Imaging Systems; Township, Pa.). The microphotographs were quantitatively analyzed (total tube length) with the Simple PCI imaging analysis software (Compix).
Matrigel tube formation assays. Samples collected from the purification process were exchanged into 1×PBS and reconstituted into 1× concentration (by volume) compared to the input tPA/captopril-treated plasma. They were tested in the matrigel tube formation assays at 10% (v/v) as follows. Unpolymerized matrigel (7 mg/ml) was placed in the wells (100 μl/well) of a pre-chilled 48-well cell culture plate and then incubated at 37° C. for 30-45 minutes for polymerization to take place. […] Tube formation was examined (4× magnification) through an inverted phase contrast microscope (Nikon Corporation; Tokyo, Japan) and recorded by a Spot RT camera (Diagnostic Instruments Inc; Sterling Heights, Mich.) using an automated image capture software (Compix Inc Imaging Systems; Township, Pa.).

[2] = tested on: microvessels in bFGF-containing matrigel plugs; experiment: In vivo angiogenesis (matrigel plug) assay, systemic treatment; parameters: species or system mice; settings: rt-PA 60 μg subcutaneously/day, captopril 150 μg intraperitoneally/day, 10 days
Method: In Vivo Angiogenesis (Matrigel Plug) Assay. The matrigel-plug assay was performed as described in Maeshima et al., (Maeshima et al., J Biol Chem 275:21340-8, 2000; Maeshima et al., J Biol Chem 276:31959-68, 2001) with modifications as follows. All animal studies were reviewed and approved by the animal care and use committee of Beth Israel Deaconess Medical Center and are in accordance with the guidelines of the department of Health and Human Services. Five to six week-old male C57/BL6 mice (The Jackson Laboratories; Bar Harbor, Me.) were injected subcutaneously at the left lower abdominal wall with 0.5 ml of unpolymerized matrigel supplemented with 500 ng/ml of basic fibroblast growth factor for the stimulated controls and treatment groups and with equivalent volume of sterile PBS for the unstimulated (no b-FGF) control group. Mice (3 per group) were treated for 10 days with: 1) rt-PA (60 μg subcutaneously/day) and captopril (150 μg intraperitoneally/day). 2) Subcutaneous rt-PA alone with equivalent volume of intraperitoneal (IP) PBS. 3) IP captopril (150 μg) with equivalent volume of subcutaneous PBS. 4) Equivalent volumes of PBS (subcutaneously and intraperitoneally). […] Sections were examined by light microscopy, and the total number of blood vessels from 10 high power fields (400× magnification) were counted in a blinded fashion. […]

[3] = tested on: platelet aggregation; settings: phenylalanine to alanine mutation at position 2; cited from earlier work
[4] = tested on: blood vessels in bFGF-enriched matrigel plugs; experiment: In vivo matrigel-plug assay, agent mixed into matrigel; parameters: species or system mice
Method: In vivo matrigel-plug assays. The matrigel-plug assay was performed as described in Maeshima et al., (Maeshima et al., J Biol Chem 275:21340-8, 2000; Maeshima et al., J Biol Chem 276:31959-68, 2001) with modifications as follows. Briefly, 500 μl of unpolymerized matrigel at a concentration of 10 mg/ml enriched with bFGF (250 ng/ml) were mixed with one of the following: PBS (vehicle), prothrombin, or TRAP. Each mixture was injected subcutaneously at the left lower abdominal wall of C57/B mice (5 to 6-week old; Jackson laboratories; Bar Harbor, Me.). At day ten, the mice were sacrificed. The matrigel plugs were then excised, fixed in 4% paraformaldehyde, embedded in paraffin, sectioned, and H&E stained. Sections were examined by light microscopy, and the total number of blood vessels from 10 high power fields (400×) were counted in a blinded fashion. Only the micro-vessels containing red blood cells were counted as positive. Results shown represent the average of counts from 4 to 5 matrigel plugs per group.

[5] = tested on: 4T1 murine breast cancer cell line; experiment: Primary tumor growth of transfected 4T1 cells in BALB/c mice; format: in vivo; settings: stable expression in 4T1 cells, mammary pad of BALB/c mice, vs empty vector, five weeks
Excerpt: Construction of mutant uPA clones and cell transfection. We chose to pursue a genetic approach, in which we stably transfected an aggressive and highly metastatic murine breast cancer cell line (4T1) with the genes for wild type uPA, tPA and a receptor binding mutant of uPA (uPAm). We inserted the cDNA encoding murine tPA into pcDNA 3.1 (+) (Invitrogen), a CMV driven mammalian expression vector, by restriction enzyme digestion of BamHI and NheI. Wild type uPA cDNA was inserted to the pcDNA 3.1 (+) expression vector and the transfected into 4T1 cells in a similar fashion as described for the tPA cDNA. Residues 22, 27, 29 and 30 on the growth factor domain of the murine uPA molecule have been implicated in binding to mouse uPAR.
The pcDNA 3.1-tPA, pcDNA 3.1-wild type uPA, pcDNA 3.1-uPAm constructs, as well as an empty vector control were introduced into 4T1 cells by transfection using lipofectamine (Gibco-BRL) reagent. We selected 12-14 stable single clones in each group with 500 ug/mL of hygromycin. Each of the clones was evaluated for generation of the gene of interest by northern blot. The clones that had the highest generation of the genes of interest were selected. […]
Experiments using transfected tumor cells. […] Primary tumor size was measured every other day for a total of five weeks using calipers and calculated using the standard formula (width2×length×0.52). […]

Molecule: C[C@H](CS)C(=O)N1CCC[C@H]1C(=O)O [captopril]
- inhibition of tube formation ([1]; in the absence of plasma, rt-PA 1 μg/ml, captopril 0.1 μM): did not cause significant inhibition of tube formation
- microvessel counts in matrigel plugs [2]: did not show major reduction of neovascularization

Molecule: Angiostatin
- inhibition of tube formation ([1]; 10 μg/ml): did not significantly inhibit tube formation
- inhibition of tube formation ([1]; 50 μg/ml): did not significantly inhibit tube formation

Molecule: GYPGKF
- endothelial cell tube formation ([1]; 100 μM peptide): little effect on tube formation

Molecule: SALLRN
- endothelial cell tube formation ([1]; 100 μM peptide): no inhibitory effect
- ability to induce platelet aggregation in vitro [3]: completely eliminated the ability of the peptide to induce platelet aggregation

Molecule: SFLLRN
- endothelial cell tube formation ([1]; 50 and 100 μM SFLLRN): dose-dependent inhibitory effect on endothelial cell tube formation

Molecule: SFLLRNPNDKYEPF [TRAP]
- endothelial cell tube formation ([1]; 1, 10, 100 μM TRAP): dose-dependently inhibited endothelial cell tube formation
- reduction of bFGF-stimulated blood vessel formation in matrigel plugs ([4]; 250 ng/ml bFGF, day 10, 10 ρg/ml prothrombin, 250 μM TRAP (FIG. 13)): significantly reduced

Molecule: SLIGKV
- endothelial cell tube formation ([1]; 100 μM peptide): little effect on tube formation

Molecule: bFGF: basic fibroblast growth factor (Peprotech), proangiogenic stimulant
- increase in angiogenesis in matrigel plugs ([4]; 250 ng/ml bFGF vs no bFGF): seven-fold increase

Molecule: lepirudin
- block of thrombin inhibition of tube formation ([1]; 10 U/ml thrombin with 200 U/ml lepirudin): completely blocked
- endothelial cell tube formation ([1]; lepirudin alone at 200 U/ml): no effects in endothelial cell tube formation
- block of prothrombin inhibition of tube formation ([1]; prothrombin with 200 U/ml lepirudin): completely blocked

Molecule: thrombin
- endothelial cell tube formation ([1]; thrombin at 5 U/ml (FIGS. 11D, 11E: 1 and 5 U/ml)): minimal effects on endothelial cell tube formation
- endothelial cell tube formation ([1]; thrombin at 10 U/ml): significantly inhibits tube formation

Molecule: wildtype uPA: murine wild type uPA expressed from pcDNA 3.1 in 4T1 cells
- inhibition of primary tumor growth [5]: significantly inhibit tumor cell growth
